Patent publication US20160067221A1, “USE OF ERGOTHIONEINE FOR INDUCING ACTIVITY OF NRF2 IN CELL” (China Medical University, priority 2014, published 2016)

Key:
Assay type in all cases: cell-based, human
[1] = tested on: UVA-irradiated HaCaT cells; experiment: LDH release (UVA-induced cell membrane damage); settings: 125, 250, 500 nM 24 hours, then 15 J/cm^2 UVA, 4 hours
Procedure: Under normal physiological condition, a lactate dehydrogenase (LDH) is presented in the cytoplasm. The cell membranes are damaged or disrupted when the cells are attacked by excessive ROS. Accordingly, the intracellular LDH releases into the culture medium. Therefore, a detection amount of LDH release is an indicator of a cell membrane damaged condition. The HaCaT cells are seeded in a 12-well plate with 1×10^5 cells/well and then maintained at 37° C. in the humidified atmosphere of 5% CO2 until the HaCaT cells are adhered in the next day. […] After incubation, the HaCaT cells are washed with PBS three times and resuspended in fresh phenol red-free DMEM supplemented with 10% FBS. Then, the HaCaT cells are exposed to the UVA (15 J/cm^2) for 4 hours. The culture medium is taken from the well, and then centrifuged at 400×g for 5 minutes by using a high speed centrifuge. After the centrifugation, 50 μL of the supernatant is taken and added into the 96-well microplate, and the 50 μL of a substrate mixture is added in each well to act at room temperature for 20 minutes in the dark. Then, 50 μl. of a stopping solution (1N HCl) is added in each well to stop the reaction, and then the absorbance at 490 nm is measured.

[2] = tested on: UVA-irradiated HaCaT cells; experiment: Western blot of apoptosis-related proteins (Caspase-3, Caspase-9, Bax, Bcl-2); settings: 125-500 nM 24 hours prior to UVA 15 J/cm^2, 4 hours
Procedure: The apoptosis can induce DNA double-strand breaks to generate a DNA fragment, To examine the effect of the ergothioneine on the UVA-induced apoptosis, an apoptotic cell death is measured using a terminal deoxyucleotidyl transferase-meditated dUTP-fluorescein nick end-labeking (TUNEL) assay, and protein expressions of apoptosis-related proteins, Caspase-3, Caspase-9, Bax and Bcl-2, are measured using a Western blot analysis. Therefore, the aforementioned methods in this example can analyze whether pretreating with the ergothioneine improves the UVA-induced apoptosis. […] After incubation, the HaCaT cells are exposed to the UVA (15 J/cm^2), and then incubated for 4 hours. Then, the protein expressions of Caspase-3, Caspase-9, Bax and Bcl-2 are measured using the Western blot analysis. FIG. 6 illustrates the effect of the ergothioneine on the protein expressions of apoptosis-related proteins of the UVA-irradiated HaCaT cells. FIG. 6-(A) represents the Western blot analysis results. FIG. 6-(B) is the quantitative diagram of the protein expressions of Caspase-3 and Caspase-9. FIG. 6-(C) is the quantitative diagram of a Bax/Bcl-2 ratio.

Nrf2 = experiment: Western blot of Nrf2 signaling pathway associated proteins (Nrf2, Keap-1, HO-1, NQO-1, γ-GCLC)
Procedure: The effect of the ergothioneine on expressions of Nrf2 protein and downstream proteins of the HaCaT cells is monitored by the Western blot analysis. The detected downstream proteins are heme oxygenase-1 (HO-1) γ-glutamylcysteine ligase catalytic subunit (γ-GCLC) and NAD(P)H: quinone acceptor oxidoreductase 1 (NQO-1). The HaCaT cells are incubated with or without the ergothioneine for 1 hour or 4 hours, wherein the concentration of the ergothioneine is 125 nM, 250 nM and 500 nM, respectively. After incubation, the HaCaT cells are suspended in a lysis buffer to collect the proteins. FIG. 7 illustrates the effect of the ergothioneine on the expressions of the Nrf2 signaling pathway associated proteins of the HaCaT cells.
In addition, we examine the effect of the ergothioneine on the expressions of the Nrf2 and the Nrf2 pathway associated proteins of the HaCaT cells treated with the UVA irradiation. The HaCaT cells are incubated with or without the ergothioneine for 24 hours, wherein the concentration of the ergothioneine is 125 nM, 250 nM and 500 nM, respectively. After incubation, the HaCaT cells are exposed to the UVA (15 J/cm^2), and then cultured for 1 hour or 4 hours. Next, the HaCaT cells are suspended in the lysis buffer to collect the proteins, and the protein expressions are measured by the Western blot analysis. FIG. 8 illustrates the effect of the ergothioneine on the expressions of the Nrf2 signaling pathway associated proteins of the UVA-irradiated HaCaT cells. FIG. 8-(A) represents the Western blot analysis results of total Nrf2 and Keap-1 protein levels, wherein the HaCaT cells are pretreated with the ergothioneine (125-500 nM), and then exposed to the UVA for 1 hour. FIG. 8-(B) represents the Western blot analysis results of the HO-1 the NQO-1 and the γ-GCLC proteins, wherein the HaCaT cells are pretreated with the ergothioneine (125-500 nM), and then exposed to the UVA for 4 hour.

[3] = tested on: antioxidant response element (ARE); experiment: ARE luciferase gene reporter assay; settings: HaCaT cells treated for 4 hours, vs untreated
Excerpt: The Nrf2 binds to the small Maf after translocating into the nucleus. […] Given that the ergothioneine treatment to the HaCaT cells can promote the Nrf2 translocating into the nucleus; this example next investigates whether the ARE transcriptional activity can be started by using a luciferase gene reporter assay. The luciferase gene reporter assay is transfected a plasmid containing the ARE gene and a luciferase gene into the HaCaT cells, wherein the luciferase gene is a reporter gene. An internal standard of the luciferase gene reporter assay is β-galactosidase, and a luminescence intensity is measured by Dual Light Kit (Applied Biosystems).

[4] = tested on: Nrf2 knockdown HaCaT cells; experiment: ROS generation in siRNA-transfected HaCaT cells; settings: 500 nM 24 hours
Procedure: The siRNA transfection includes steps as follows. The HaCaT cells are seeded in a 6-well plate with 4×10^5 cells/well and then maintained at 37° C. in the humidified atmosphere of 5% CO2 untill the time of the transfection. The day after reaching 40-60% confluence, the culture medium is replaced with 1 mL of FBS-free and antibiotic-free culture medium in each well, and the HaCaT cells are transfected with a siNrf2 or a control siRNA by using Lipofectamine 2000 (Invitrogen, U.S.A.) for 4-6 hours. After the incubation for 4-6 hours, the HaCaT cells are washed with the culture medium supplemented with 10% FBS 2-3 times, and then cultured in the culture medium supplemented with 10% FBS for 12-16 hours.
We further measure the amount of ROS generation in the HaCaT cells treated with the ergothioneine prior to 15 J/cm^2 UVA irradiation. The HaCaT cells are incubated with 500 nM ergothioneine for 24 hours after the siRNA transfection. After the incubation, the HaCaT cells are treated with or without the UVA irradiation (15 J/cm^2) for 4 hours, and then the HaCaT cells are subjected to detect the ROS generation.

[5] = 125-500 nM 24 hours pretreatment, UVA 15 J/cm^2, 4 hours

Compound: C[N+](C)(C)[C@@H](Cc1c[nH]c(=S)[nH]1)C(=O)[O-] [ergothioneine, 2-mercapto histidine trimethylbetain]
- LDH release [1]: inhibits the LDH release in a dose-dependent manner
- Bax/Bcl-2 ratio [2]: significantly reduced
- protein expression of Caspase-3 [2]: significantly reduced
- protein expression of Caspase-9 [2]: significantly reduced
- Nrf2 expression (Nrf2/Keap-1 ratio) (Nrf2; 125-500 nM 24 hours pretreatment, UVA 15 J/cm^2, 1 hour): dramatically increases the Nrf2 expression
- expression of HO-1 protein (Nrf2; [5]): also increased
- expression of NQO-1 protein (Nrf2; [5]): also increased
- expression of γ-GCLC protein (Nrf2; [5]): also increased
- total Nrf2 protein level (Nrf2; 125-500 nM for 1 hour, no UVA, especially with 500 nM): increases the total Nrf2 protein level
- expression of HO-1 protein (Nrf2; 125-500 nM for 4 hours, no UVA): also increased
- expression of NQO-1 protein (Nrf2; 125-500 nM for 4 hours, no UVA): also increased
- expression of γ-GCLC protein (Nrf2; 125-500 nM for 4 hours, no UVA): also increased
- luciferase activity derived from the ARE promoter [3]: increased
- ROS generation ([4]; Nrf2 siRNA, UVA 15 J/cm^2): unable to decrease the ROS generation
- ROS generation ([4]; control siRNA, UVA 15 J/cm^2, vs UVA alone): significantly reduced
